Read-outs that look alike come from different tables or passages of the source.
Biological target: GDP-bound KRAS protein (aa 1-169), containing both G12C and C118A amino acid substitutions (Homo sapiens (Human), UniProt P01116, C118A/G12C)
Assay: Coupled Nucleotide Exchange Assay
Assay type: biochemical
Experimental: For compounds in Table 9, the following assay conditions were employed:
Coupled Nucleotide Exchange Assay:
The assay plates were then read on a PerkinElmer EnVision Multilabel Reader, using AlphaScreen® technology, and data were analyzed using a 4-parameter logistic model to calculate IC50 values.

[1] = read-out: Coupled Exchange IC50 (5 min), 5 min compound pre-incubation
[2] = read-out: Coupled Exchange IC50 (2 h), 2 h compound pre-incubation
[3] = read-out: Coupled Exchange IC50 (20 h), 20 h compound pre-incubation

Chain of GDP-bound KRAS protein (aa 1-169), containing both G12C and C118A amino acid substitutions (P01116 other isoform, or with tags, fused parts or gaps G12C/C118A): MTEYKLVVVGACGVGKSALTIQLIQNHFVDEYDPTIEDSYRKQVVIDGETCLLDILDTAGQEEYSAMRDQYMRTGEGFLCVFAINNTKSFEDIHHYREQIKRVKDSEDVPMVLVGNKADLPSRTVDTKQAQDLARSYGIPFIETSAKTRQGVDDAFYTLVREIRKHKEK

Row | Structure (SMILES) | IC50 [1] | IC50 [2] | IC50 [3]
1 | C=CC(=O)N1CC(NC(=O)Cn2ccc3cc(Br)ccc32)C1 [Example 180] | 201 µM | > 250 µM | 5.5 µM
2 | C=CC(=O)N1CC(NC(=O)Cn2c(C(=O)OC)cc3cc(Br)ccc32)C1 [Example 181] |  | > 250 µM | 6.47 µM
3 | C=CC(=O)N1CC(NC(=O)Cn2ccc3ccc(Br)cc32)C1 [Example 182] |  | > 250 µM | > 250 µM
4 | C=CC(=O)N1CC(NC(=O)Cn2ccc3ccccc32)C1 [Example 183] |  | > 250 µM | > 250 µM
5 | C=CC(=O)N1CC(NC(=O)Cn2c(C=O)cc3cc(Br)ccc32)C1 [Example 185] |  | > 250 µM | 15.9 µM
6 | C=CC(=O)N1CC(NC(=O)Cn2ccc3cc(Br)c(C)cc32)C1 [Example 186] | > 250 µM | 26.6 µM | 4.47 µM
7 | C=CC(=O)N1CC(NC(=O)Cn2ccc3cc(Cl)ccc32)C1 [Example 187] | > 250 µM | > 250 µM | 7.27 µM
8 | C=CC(=O)N1CC(NC(=O)Cn2ccc3cc(I)ccc32)C1 [Example 188] |  | 22.2 µM | 3.71 µM
9 | C=CC(=O)N1CC(NC(=O)Cn2c(C(=O)NCCc3ccccc3)cc3cc(Br)ccc32)C1 [Example 189] |  | 15.6 µM | 1.62 µM
10 | C=CC(=O)N1CC(NC(=O)Cn2ccc3cc(Br)cc(C)c32)C1 [Example 190] | 193 µM | 16 µM | 1.76 µM
11 | C=CC(=O)N1CC(NC(=O)Cn2ccc3cc(C#N)ccc32)C1 [Example 191] |  | > 250 µM | > 250 µM
12 | C=CC(=O)N1CC(NC(=O)Cn2c(C(=O)NCc3ccccc3)c(I)c3cc(Br)ccc32)C1 [Example 192] |  | 107 µM | 61.7 µM
13 | C=CC(=O)N1CC(NC(=O)Cn2c3ccc(Br)cc3c3cc(Br)ccc32)C1 [Example 193] |  | > 250 µM | 0.39 µM
14 | C=CC(=O)N1CC(NC(=O)Cn2cc(C)c3cc(Br)ccc32)C1 [Example 194] | 151 µM | 30.1 µM | 2.23 µM
15 | C=CC(=O)N1CC(NC(=O)Cn2c3ccccc3c3ccccc32)C1 [Example 195] |  | > 250 µM | 33.5 µM
16 | C=CC(=O)N1CC(NC(=O)Cn2c(-c3ncccn3)cc3cc(Cl)ccc32)C1 [Example 196] |  | 45.6 µM | 6.09 µM
17 | C=CC(=O)N1CC(NC(=O)Cn2cc(-c3cnn(C)c3)c3cc(Cl)ccc32)C1 [Example 197] |  | 24.5 µM | 5.51 µM
18 | C=CC(=O)N1CC(NC(=O)Cn2ccc3cc(F)ccc32)C1 [Example 198] |  | > 250 µM | > 250 µM
19 | C=CC(=O)N1CC(NC(=O)Cn2ccc3c(Cl)cccc32)C1 [Example 199] |  | > 250 µM | 21.6 µM
20 | C=CC(=O)N1CC(NC(=O)Cn2cc(C(=O)C(=O)OCC)c3ccccc32)C1 [Example 200] |  | > 250 µM | > 250 µM
21 | C=CC(=O)N1CC(NC(=O)Cn2cc(C(=O)C(=O)O)c3ccccc32)C1 [Example 201] |  | > 250 µM | > 250 µM
22 | C=CC(=O)N1CC(NC(=O)Cn2ccc3ccc(Cl)cc32)C1 [Example 202] |  | > 250 µM | > 250 µM

Row | Structure (SMILES) | IC50 [1] | IC50 [2] | IC50 [3]
23 | C=CC(=O)N1CC(NC(=O)Cn2ccc3cccc(Cl)c32)C1 [Example 203] |  | > 250 µM | > 250 µM
24 | C=CC(=O)N1CC(NC(=O)Cn2cc(-c3c(C)ccc4cn[nH]c34)c3cc(-c4c(C)ccc5cn[nH]c45)ccc32)C1 [Example 205] |  | 80.5 µM | 11.4 µM
25 | C=CC(=O)N1CC(NC(=O)Cn2cc(-c3cccnc3)c3cc(Br)ccc32)C1 [Example 206] |  | 14.1 µM | 2.84 µM
26 | C=CC(=O)N1CC(NC(=O)Cn2cc(-c3cccnc3)c3cc(-c4cccnc4)ccc32)C1 [Example 207] |  | 164 µM | 18.2 µM
27 | C=CC(=O)N1CC(NC(=O)Cn2cc(-c3c(F)ccc4cn[nH]c34)c3cc(-c4c(F)ccc5cn[nH]c45)ccc32)C1 [Example 208] |  | 20.5 µM | 13 µM
28 | C=CC(=O)N1CC(NC(=O)Cn2cc(-c3ccccc3OC)c3cc(-c4ccccc4OC)ccc32)C1 [Example 209] |  | 14.1 µM | 3.01 µM
29 | C=CC(=O)N1CC(NC(=O)Cn2cc(-c3ccc(F)cc3F)c3cc(-c4ccc(F)cc4F)ccc32)C1 [Example 210] |  | > 250 µM | 10.9 µM
30 | C=CC(=O)N1CC(NC(=O)Cn2cc(C#N)c3cc(Br)ccc32)C1 [Example 211] |  | 22.9 µM | 5.2 µM
31 | C=CC(=O)N1CC(NC(=O)Cn2cc(I)c3ccccc32)C1 [Example 212] | > 250 µM | 27.4 µM | 6.8 µM
32 | C=CC(=O)N1CC(NC(=O)Cn2cc(Cc3ccccc3)c3ccccc32)C1 [Example 213] |  | 31.1 µM | 5.09 µM
33 | C=CC(=O)N1CC(NC(=O)Cn2cc(CC#N)c3cc(Br)ccc32)C1 [Example 214] |  | 33.8 µM | 4.48 µM
34 | C=CC(=O)N1CC(NC(=O)Cn2c(-c3ccncc3)cc3ccccc32)C1 [Example 215] |  | > 250 µM | > 250 µM
35 | C=CC(=O)N1CC(NC(=O)Cn2cc(-c3cccc(C#N)c3)c3cc(Br)ccc32)C1 [Example 216] |  | 12.9 µM | 3 µM
36 | C=CC(=O)N1CC(NC(=O)Cn2ccc3cc(C4CC4)ccc32)C1 [Example 217] |  | > 250 µM | > 125 µM
37 | C=CC(=O)N1CC(NC(=O)Cn2c3ccc(Br)cc3c3ccc(Cl)nc32)C1 [Example 218] |  | > 250 µM | > 250 µM
38 | C=CC(=O)N1CC(NC(=O)Cn2cc(-c3cocn3)c3ccc(-c4ccccc4Cl)cc32)C1 [Example 219] |  | > 250 µM | 2.87 µM
39 | C=CC(=O)N1CC(NC(=O)Cn2c(C(=O)OC)cc3c(Cl)c(Cl)ccc32)C1 [Example 220] |  | 12.2 µM | 1.89 µM
40 | C=CC(=O)N1CC(NC(=O)Cn2c(C(=O)NCc3ccc(C(=O)O)s3)cc3cc(Br)ccc32)C1 [Example 225] |  | > 250 µM | 19.8 µM
41 | C=CC(=O)N1CC(NC(=O)Cn2cc(CC(=O)NCc3ccccc3)c3cc(Br)ccc32)C1 [Example 226] |  | 8.23 µM | 1.66 µM
42 | C=CC(=O)N1CC(NC(=O)Cn2c3c(c4cc(Br)ccc42)CCN(C(=O)OCc2ccccc2)C3)C1 [Example 227] |  | 12.3 µM | 2.61 µM
43 | C=CC(=O)N1CC(NC(=O)Cn2cc(-c3cc[nH]n3)c3ccc(-c4ccccc4Cl)cc32)C1 [Example 229] |  | 18.9 µM | 5.4 µM
44 | C=CC(=O)N1CC(NC(=O)Cn2cc(Cc3ccccc3)c3cc(Br)ccc32)C1 [Example 231] |  | 10.3 µM | 2.05 µM

Row | Structure (SMILES) | IC50 [1] | IC50 [2] | IC50 [3]
45 | C=CC(=O)N1CC(NC(=O)Cn2ccc3cc([N+](=O)[O-])ccc32)C1 [Example 232] |  | > 250 µM | 94.1 µM
46 | C=CC(=O)N1CC(NC(=O)Cn2cc(Br)c3cc([N+](=O)[O-])ccc32)C1 [Example 233] | > 250 µM | 11.4 µM | 1.58 µM
47 | C=CC(=O)N1CC(NC(=O)Cn2c3ccc(Br)cc3c3ccc(Oc4ccc(F)cc4)nc32)C1 [Example 234] |  | > 250 µM | 0.32 µM
48 | C=CC(=O)N1CC(NC(=O)Cn2ccc3cc(C(F)(F)F)ccc32)C1 [Example 235] |  | > 250 µM | 5.45 µM
49 | C=CC(=O)N1CC(NC(=O)Cn2ccc3cc(OC)ccc32)C1 [Example 236] |  | > 250 µM | > 250 µM
50 | C=CC(=O)N1CC(NC(=O)Cn2ccc3cc(-c4ccccc4)ccc32)C1 [Example 237] |  | > 250 µM | > 250 µM
51 | C=CC(=O)N1CC(NC(=O)Cn2c3c(c4cc(Br)ccc42)C=NCC3)C1 [Example 238] |  | 73.1 µM | 9.89 µM
52 | C=CC(=O)N1CC(NC(=O)Cn2c3c(c4cc(Br)ccc42)CCN(Cc2ccccc2)C3)C1 [Example 239] |  | > 250 µM | 44 µM
53 | C=CC(=O)N1CC(NC(=O)Cn2cc([N+](=O)[O-])c3cc(Cl)ccc32)C1 [Example 240] |  | 13.1 µM | 1.33 µM
54 | C=CC(=O)N1CC(NC(=O)CN2Cc3c(n(C(C)=O)c4ccc(Br)cc34)C2)C1 [Example 242] |  | > 250 µM | 7.66 µM
55 | C=CC(=O)N1CC(NC(=O)Cn2c(-c3ccccc3)cc3cc(Br)ccc32)C1 [Example 243] |  | 18.2 µM | 2.82 µM
56 | C=CC(=O)N1CC(NC(=O)Cn2c3c(c4cc(Br)ccc42)CNCC3)C1 [Example 249] |  | 54.6 µM | 21.7 µM
57 | C=CC(=O)N1CC(NC(=O)Cn2c3c(c4cc(Br)ccc42)CCNC3)C1 [Example 250] |  | 89.4 µM | 5.69 µM
58 | C=CC(=O)N1CC(NC(=O)Cn2c3c(c4cc(Br)ccc42)CN(C(C)=O)CC3)C1 [Example 251] |  | > 250 µM | 7.91 µM
59 | C=CC(=O)N1CC(NC(=O)Cn2c3c(c4cc(Br)ccc42)CCN(C(C)=O)C3)C1 [Example 252] |  | 19.4 µM | 2.49 µM
60 | C=CC(=O)N1CC(NC(=O)Cn2cc(C(C)(O)C(=O)NCc3ccccc3)c3cc(Br)ccc32)C1 (centres unmarked) [Example 253] |  | 19.4 µM | 2.31 µM
61 | C=CC(=O)N1CC(NC(=O)Cn2ccc3c(F)c(Br)ccc32)C1 [Example 255] |  | > 250 µM | 4.89 µM
62 | C=CC(=O)N1CC(NC(=O)Cn2cc(I)c3cc(C(F)(F)F)ccc32)C1 [Example 257] | 64.7 µM | 9.12 µM | 0.97 µM
63 | C=CC(=O)N1CC(NC(=O)Cn2ccc3cc(Cl)c(Cl)cc32)C1 [Example 258] |  | 104 µM | 5.22 µM
64 | C=CC(=O)N1CC(NC(=O)Cn2c3ccc(Br)cc3c3ccncc32)C1 [Example 259] |  | 26.8 µM | 2.88 µM
65 | C=CC(=O)N1CC(N(C)C(=O)Cn2c3ccccc3c3cc(Br)ccc32)C1 [Example 261] |  | 15.4 µM | 2.17 µM
66 | C=CC(=O)N1CC(NC(=O)Cn2c3c(c4cc(Br)ccc42)CCCC3=O)C1 [Example 262] |  | > 250 µM | 3.31 µM
